Laboratory results: publication PMC7914897, “Cytotoxic Potential of a-Azepano- and 3-Amino-3,4-SeCo-Triterpenoids” (International Journal of Molecular Sciences, 2021)

Tests used:
[1] = system: CNS cancer subpanel; experiment: NCI-60 screen, subpanel; settings: Homo sapiens; for IC (TGI): 48 h, read-out: TGI MG_MID; for GI50: read-out: GI50 MG_MID
[2] = system: SN12C (Renal cancer); experiment: NCI-60 screen (SRB, 48 h); settings: for IC (TGI): 48 h, read-out: TGI
[3] = system: Melanoma subpanel; experiment: NCI-60 screen, subpanel; settings: Homo sapiens; for IC (TGI): 48 h, read-out: TGI MG_MID; for GI50: read-out: GI50 MG_MID
[4] = system: NCI-H322M (NSC lung cancer); experiment: NCI-60 screen (SRB, 48 h); settings: Homo sapiens; for IC (TGI): 48 h, read-out: TGI
[5] = system: UACC-257 (Melanoma); experiment: NCI-60 screen (SRB, 48 h); settings: Homo sapiens; for GI50: UACC-257; for IC (TGI): UACC-257, 48 h, read-out: TGI
[6] = system: M14 (Melanoma); experiment: NCI-60 screen (SRB, 48 h); settings: Homo sapiens; for GI50: M14; for IC (TGI): M14, 48 h, read-out: TGI
[7] = system: SNB-19 (CNS cancer); experiment: NCI-60 screen (SRB, 48 h); settings: Homo sapiens; for GI50: SNB-19; for IC (TGI): SNB-19, 48 h, read-out: TGI
[8] = system: COLO 205 (Colon cancer); experiment: NCI-60 screen (SRB, 48 h); settings: Homo sapiens; for GI50: COLO 205; for IC (TGI): COLO 205, 48 h, read-out: TGI
[9] = system: NCI-H226 (NSC lung cancer); experiment: NCI-60 screen (SRB, 48 h); settings: Homo sapiens; for GI50: NCI-H226; for IC (TGI): NCI-H226, 48 h, read-out: TGI
[10] = system: NIH 3T3 (non-malignant mouse fibroblasts); experiment: SRB cytotoxicity assay, 72 h; type: cell-based; settings: Mus musculus, NIH3T3; NIH 3T3, 72 h, cut-off 30 µM; read-out: EC50
Procedure: The cytotoxicity of compounds 1–20 was evaluated by means of a colorimetric sulforhodamine B (SRB) assay. For all compounds, the EC50 values were determined for the human tumor cell lines A375 (malignant melanoma), HT29 (colorectal carcinoma), MCF-7 (breast carcinoma), A2780 (ovarian carcinoma), FaDu (hypopharyngeal carcinoma), and NIH 3T3 (non-malignant mouse fibroblasts).
In short, exponentially growing cells were seeded into 96-well plates on day 0 at the appropriate cell densities to prevent confluence of the cells during the period of experiment. After 24 h, the cells were treated with serial dilutions of the compounds (0–30 µM) for 72 h. The final concentration of DMSO never exceeded 0.5%, which was non-toxic to the cells. After a 72 h treatment, the supernatant medium from the 96-well plates was discarded, and the cells were fixed with 10% TCA. For a thorough fixation, the plates were allowed to rest at 4 °C. After fixation, the cells were washed in a strip washer. The washing was done four times with water using alternate dispensing and aspiration procedures. The plates were then dyed with 100 µL of 0.4% SRB for about 20 min. After dying, the plates were washed with 1% acetic acid to remove the excess of the dye and allowed to air-dry overnight. Tris base solution (200 µL, 10 mM) was added to each well and absorbance was measured at λ = 570 nm (using a 96 well plate reader, Tecan Spectra, Crailsheim, Germany). The percentages of surviving cells relative to untreated controls were determined.

[11] = system: MCF7 (Breast cancer); experiment: NCI-60 screen (SRB, 48 h); settings: Homo sapiens; for GI50: MCF7
[12] = system: ACHN (Renal cancer); experiment: NCI-60 screen (SRB, 48 h); settings: Homo sapiens; for IC (TGI): 48 h, read-out: TGI
[13] = system: MALME-3M (Melanoma); experiment: NCI-60 screen (SRB, 48 h); settings: Homo sapiens; for IC (TGI): 48 h, read-out: TGI
[14] = system: HCT-116 (Colon cancer); experiment: NCI-60 screen (SRB, 48 h); settings: Homo sapiens; for GI50: HCT-116; for IC (TGI): read-out: TGI
[15] = system: OVCAR-5 (Ovarian cancer); experiment: NCI-60 screen (SRB, 48 h); settings: for GI50 / IC (TGI): Homo sapiens; for GI50: OVCAR-5; for IC (TGI): OVCAR-5, 48 h, read-out: TGI
[16] = system: MDA-MB-31/ATCC (Breast cancer); experiment: NCI-60 screen (SRB, 48 h); settings: Homo sapiens
[17] = system: SW-620 (Colon cancer); experiment: NCI-60 screen (SRB, 48 h); settings: Homo sapiens; for GI50: SW-620
[18] = system: A498 (Renal cancer); experiment: NCI-60 screen (SRB, 48 h); settings: Homo sapiens; for GI50: A498; for IC (TGI): A498, 48 h, read-out: TGI; for CC50: A498, read-out: LC50
[19] = system: SF-295 (CNS cancer); experiment: NCI-60 screen (SRB, 48 h); settings: Homo sapiens; for GI50: SF-295; for IC (TGI): SF-295, 48 h, read-out: TGI
[20] = system: HOP-92 (NSC lung cancer); experiment: NCI-60 screen (SRB, 48 h); settings: Homo sapiens; for GI50: HOP-92; for IC (TGI): HOP-92, 48 h, read-out: TGI
[21] = system: HCT-15 (Colon cancer); experiment: NCI-60 screen (SRB, 48 h); settings: Homo sapiens; for GI50: HCT-15
[22] = system: HCC-2998 (Colon cancer); experiment: NCI-60 screen (SRB, 48 h); settings: for GI50: HCC 2998

SMILES: C=C(C)[C@@H]1CCC=C2CC[C@]3(C)[C@H](CC[C@@H]4[C@@]5(C)CCCNC(C)(C)[C@@H]5CC[C@]43C)[C@H]21 [Compound 8]
- IC (TGI) [1]: 3310 nM
- GI50 [1]: 1790 nM
- CC50 ([1]; read-out: LC50 MG_MID): 5970 nM
- GI50 ([2]; Homo sapiens): 1790 nM
- IC (TGI) ([2]; Homo sapiens): 3310 nM
- CC50 ([2]; Homo sapiens, read-out: LC50): 6120 nM
- IC (TGI) [3]: 3460 nM
- GI50 [3]: 1840 nM
- CC50 ([3]; read-out: LC50 MG_MID): 6730 nM
- GI50 [4]: 1730 nM
- IC (TGI) [4]: 3140 nM
- CC50 ([4]; read-out: LC50): 5700 nM
- GI50 [5]: 2190 nM
- IC (TGI) [5]: 4290 nM
- CC50 ([5]; UACC-257, read-out: LC50): 8380 nM
- GI50 [6]: 1890 nM
- IC (TGI) [6]: 3380 nM
- GI50 [7]: 1930 nM
- IC (TGI) [7]: 3440 nM
- GI50 [8]: 1380 nM
- IC (TGI) [8]: 2790 nM
- CC50 ([8]; COLO 205, read-out: LC50): 5640 nM
- GI50 [9]: 1970 nM
- IC (TGI) [9]: 3810 nM
- EC50 [10]: 2410 ± 500 nM
- GI50 [11]: 1370 nM
- IC (TGI) ([11]; MCF7, 48 h, read-out: TGI): 2920 nM
- CC50 ([11]; MCF7, read-out: LC50): 6220 nM
- GI50 [12]: 1840 nM
- IC (TGI) [12]: 3260 nM
- GI50 [13]: 1700 nM
- IC (TGI) [13]: 3460 nM
- GI50 [14]: 1370 nM
- activity at 10 µM ([14]; HCT-116, 48 h, read-out: Growth % of the Most Sensitive Cell Lines): -96.2%
- IC (TGI) ([14]; HCT-116, 48 h): 2820 nM
- GI50 [15]: 1750 nM
- IC (TGI) [15]: 3320 nM
- GI50 [16]: 1810 nM
- IC (TGI) ([16]; 48 h, read-out: TGI): 3350 nM
- CC50 ([16]; read-out: LC50): 6200 nM
- GI50 [17]: 1920 nM
- IC (TGI) ([17]; SW-620, 48 h, read-out: TGI): 3750 nM
- GI50 [18]: 2030 nM
- IC (TGI) [18]: 3790 nM
- CC50 [18]: 7080 nM
- GI50 [19]: 1810 nM
- IC (TGI) [19]: 3260 nM
- CC50 ([19]; SF-295, read-out: LC50): 5880 nM
- GI50 [20]: 1370 nM
- IC (TGI) [20]: 2770 nM
- CC50 ([20]; HOP-92, read-out: LC50): 5610 nM
- GI50 [21]: 1440 nM
- IC (TGI) ([21]; HCT-15, 48 h, read-out: TGI): 2840 nM
- CC50 ([21]; HCT-15, read-out: LC50): 5590 nM
- Growth % of the Most Sensitive Cell Lines ([22]; HCC-2998, 1 dose 10 µM): −93.75%
- GI50 ([22]; Homo sapiens): 1310 nM
- IC (TGI) ([22]; Homo sapiens, HCC 2998, 48 h, read-out: TGI): 2760 nM

SMILES: C=C(C)[C@@H]1CC[C@]2(COS(=O)(=O)c3ccc(C)cc3)CC[C@]3(C)[C@@H](CC[C@@H]4[C@@]5(C)CCCNC(C)(C)[C@@H]5CC[C@]43C)[C@@H]12 [Compound 12]
- IC (TGI) [1]: 3490 nM
- GI50 [1]: 1790 nM
- Growth % of the Most Sensitive Cell Lines ([2]; 1 dose 10 µM): −94.44%
- GI50 ([2]; Homo sapiens): 1880 nM
- IC (TGI) ([2]; Homo sapiens): 3370 nM
- IC (TGI) [3]: 3420 nM
- GI50 [3]: 1870 nM
- GI50 [4]: 1760 nM
- IC (TGI) [4]: 3160 nM
- GI50 [5]: 1970 nM
- IC (TGI) [5]: 3650 nM
- GI50 [6]: 1830 nM
- IC (TGI) [6]: 3300 nM
- GI50 [7]: 2040 nM
- IC (TGI) [7]: 3680 nM
- GI50 [8]: 1750 nM
- IC (TGI) [8]: 3240 nM
- GI50 [9]: 1810 nM
- IC (TGI) [9]: 3630 nM
- EC50 [10]: 1940 ± 200 nM
- GI50 [11]: 1450 nM
- GI50 [12]: 1980 nM
- IC (TGI) [12]: 3450 nM
- GI50 [13]: 1840 nM
- IC (TGI) [13]: 3790 nM
- GI50 [14]: 1790 nM
- IC (TGI) ([14]; HCT-116, 48 h): 3330 nM
- GI50 [15]: 1640 nM
- IC (TGI) [15]: 3130 nM
- Growth % of the Most Sensitive Cell Lines ([15]; OVCAR-5, 1 dose 10 µM): −87.72%
- GI50 [16]: 1880 nM
- GI50 [17]: 1830 nM
- GI50 [18]: 1630 nM
- IC (TGI) [18]: 3140 nM
- CC50 [18]: 6040 nM
- GI50 [19]: 1600 nM
- IC (TGI) [19]: 3010 nM
- GI50 [20]: 1540 nM
- IC (TGI) [20]: 3010 nM
- GI50 [21]: 1380 nM
- GI50 ([22]; Homo sapiens): 1580 nM
